pIC50: −log10 of the molar value.
Target: SARS-CoV-2 3CL Protease (Severe acute respiratory syndrome coronavirus 2, UniProt P0DTD1)
Test: 3CL protease SARS-CoV-2 activity (M^Pro assay), fluorescence kit
Format: biochemical
Details: for Kinetic Activity: positive control 120; for ∆RFU: ∆T 30, positive control 100

| Compound | pIC50 | Kinetic Activity (Conc. 0.1) | ∆RFU (Conc. 0.1) | Kinetic Activity (Conc. 1) | ∆RFU (Conc. 1) | Kinetic Activity (Conc. 10) | ∆RFU (Conc. 10) | Kinetic Activity (Conc. 100) | ∆RFU (Conc. 100) | reduction of the protease activity (in words) (final concentration of 50 μM, compared to the plumbagin positive standard) |
| --- | --- | --- | --- | --- | --- | --- | --- | --- | --- | --- |
| CC1=CC(=O)c2c(O)cccc2C1=O [Plumbagin, reference compound] | 4.06 | 115.069 | 95.89 | 102.853 | 85.71 | 77.9528 | 64.96 | 27.0243 | 22.52 | – |
| O=C(O)c1cc(O)c(O)c(O)c1 [Compound 8, gallic acid] | 3.75 | 117.505 | 97.92 | 109.237 | 91.03 | 93.0969 | 77.58 | 29.8323 | 24.86 | – |
| Oc1cc(O)c2c(c1)O[C@H](c1ccc(O)c(O)c1)[C@@H](O)C2 [Compound 6, catechin] | 4.04 | 113.953 | 94.96 | 107.173 | 89.31 | 83.2328 | 69.36 | 33.3003 | 27.75 | – |
| O=c1cc(-c2ccc(O)cc2)oc2c([C@@H]3O[C@H](CO)[C@@H](O)[C@H](O)[C@H]3O)c(O)cc(O)c12 [Compound 3, vitexin] | 3.64 | 117.109 | 97.59 | 110.257 | 91.88 | 99.133 | 82.61 | 46.7405 | 38.95 | – |
| C[C@@H]1O[C@@H](O[C@H]2[C@H](Oc3cc(O)c4c(c3)O[C@H](c3ccc(O)cc3)CC4=O)O[C@H](CO)[C@@H](O)[C@@H]2O)[C@H](O)[C@H](O)[C@H]1O [Compound 5, naringin] | 4.54 | 117.637 | 98.03 | 101.965 | 84.97 | 80.2328 | 66.86 | 25.8243 | 21.52 | significant reduction |
| O=C(O)/C=C/c1ccc(O)cc1 [Compound 7, p-coumaric acid] | 3.33 | 118.477 | 98.73 | 113.905 | 94.92 | 100.333 | 83.61 | 42.0724 | 35.06 | – |
| C[C@@H]1O[C@@H](OC[C@H]2O[C@@H](Oc3c(-c4ccc(O)c(O)c4)oc4cc(O)cc(O)c4c3=O)[C@H](O)[C@@H](O)[C@@H]2O)[C@H](O)[C@H](O)[C@H]1O [Compound 4, rutin] | – | 116.077 | 96.73 | 110.065 | 91.72 | 92.9049 | 77.42 | 32.3043 | 26.92 | – |
| O=c1cc(-c2ccc(O)c(-c3c(O)cc(O)c4c(=O)cc(-c5ccc(O)cc5)oc34)c2)oc2cc(O)cc(O)c12 [Compound 2, amentoflavone] | 3.87 | 117.505 | 97.92 | 112.981 | 94.15 | 94.7529 | 78.96 | 44.4244 | 37.02 | – |

— article PMC9572397, “Garcinia cambogia Phenolics as Potent Anti-COVID-19 Agents: Phytochemical Profiling, Biological Activities, and Molecular Docking” (Plants, 2022)
